Data from the kinase profiling compilation of Christmann-Franck et al. (2016).

Key:
Assay in all cases: KINOMEscan competition binding
Conditions in all cases: compound 10.0 µM
ERBB4 (human) = ERBB4 (human) (UniProt Q15303)
FLT1 (human) = FLT1 (human) (UniProt P17948)
FYN (human) = FYN (human) (UniProt P06241)
SRMS (human) = SRMS (human) (UniProt Q9H3Y6)
PRKCQ (human) = PRKCQ (human) (UniProt Q04759)
MAP2K6 (human) = MAP2K6 (human) (UniProt P52564)
SRPK1 (human) = SRPK1 (human) (UniProt Q96SB4)
STK32C (human) = STK32C (human) (UniProt Q86UX6)
TESK1 (human) = TESK1 (human) (UniProt Q15569)
Chain of TESK1 (human) (Q15569 whole entry, looked up): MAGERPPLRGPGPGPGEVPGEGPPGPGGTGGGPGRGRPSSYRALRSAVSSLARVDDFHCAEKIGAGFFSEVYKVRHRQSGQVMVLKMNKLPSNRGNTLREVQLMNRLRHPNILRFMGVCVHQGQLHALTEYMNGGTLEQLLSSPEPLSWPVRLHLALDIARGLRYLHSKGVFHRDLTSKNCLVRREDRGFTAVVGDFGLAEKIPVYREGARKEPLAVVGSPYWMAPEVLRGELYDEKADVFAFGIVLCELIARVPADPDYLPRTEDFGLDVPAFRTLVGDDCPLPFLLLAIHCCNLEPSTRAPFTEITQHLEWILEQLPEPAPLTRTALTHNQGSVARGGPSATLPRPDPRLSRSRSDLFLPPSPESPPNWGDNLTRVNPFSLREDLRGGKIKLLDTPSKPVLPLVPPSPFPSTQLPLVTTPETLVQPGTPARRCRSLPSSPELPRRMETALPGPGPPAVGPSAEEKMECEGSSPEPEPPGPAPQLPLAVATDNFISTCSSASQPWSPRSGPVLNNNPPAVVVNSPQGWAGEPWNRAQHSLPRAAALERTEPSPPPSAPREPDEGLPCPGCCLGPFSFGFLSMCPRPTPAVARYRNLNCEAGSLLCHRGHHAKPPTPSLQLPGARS

LTK (human) = LTK (human) (UniProt P29376)
Chain of LTK (human) (P29376 whole entry, looked up): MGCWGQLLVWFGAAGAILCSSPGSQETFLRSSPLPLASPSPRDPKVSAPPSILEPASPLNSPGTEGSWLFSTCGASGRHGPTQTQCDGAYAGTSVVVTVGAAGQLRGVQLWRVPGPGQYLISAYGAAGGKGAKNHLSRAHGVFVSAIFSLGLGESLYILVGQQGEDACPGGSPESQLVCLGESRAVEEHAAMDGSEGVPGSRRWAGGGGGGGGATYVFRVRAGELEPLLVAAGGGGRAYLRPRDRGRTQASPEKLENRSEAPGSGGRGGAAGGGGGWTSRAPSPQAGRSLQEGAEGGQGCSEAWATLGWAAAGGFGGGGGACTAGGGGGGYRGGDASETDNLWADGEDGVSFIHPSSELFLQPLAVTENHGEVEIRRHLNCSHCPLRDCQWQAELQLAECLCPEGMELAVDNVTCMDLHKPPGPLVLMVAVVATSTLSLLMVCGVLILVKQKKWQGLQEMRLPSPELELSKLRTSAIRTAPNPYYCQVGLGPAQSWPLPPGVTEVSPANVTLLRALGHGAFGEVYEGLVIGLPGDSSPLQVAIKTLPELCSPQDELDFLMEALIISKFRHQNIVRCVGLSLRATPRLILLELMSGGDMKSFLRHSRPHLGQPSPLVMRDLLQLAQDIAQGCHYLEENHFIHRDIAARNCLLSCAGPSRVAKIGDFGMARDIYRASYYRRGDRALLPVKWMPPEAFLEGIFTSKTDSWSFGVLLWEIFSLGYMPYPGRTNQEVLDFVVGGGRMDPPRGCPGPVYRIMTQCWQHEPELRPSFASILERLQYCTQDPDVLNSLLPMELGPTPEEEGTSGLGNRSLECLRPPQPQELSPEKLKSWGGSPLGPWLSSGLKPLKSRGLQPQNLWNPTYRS

CAMK1G (human) = CAMK1G (human) (UniProt Q96NX5)
CDK15 (human) = CDK15 (human) (UniProt Q96Q40)
STK4 (human) = STK4 (human) (UniProt Q13043)
MAPK11 (human) = MAPK11 (human) (UniProt Q15759)
Chain of MAPK11 (human) (Q15759 whole entry, looked up): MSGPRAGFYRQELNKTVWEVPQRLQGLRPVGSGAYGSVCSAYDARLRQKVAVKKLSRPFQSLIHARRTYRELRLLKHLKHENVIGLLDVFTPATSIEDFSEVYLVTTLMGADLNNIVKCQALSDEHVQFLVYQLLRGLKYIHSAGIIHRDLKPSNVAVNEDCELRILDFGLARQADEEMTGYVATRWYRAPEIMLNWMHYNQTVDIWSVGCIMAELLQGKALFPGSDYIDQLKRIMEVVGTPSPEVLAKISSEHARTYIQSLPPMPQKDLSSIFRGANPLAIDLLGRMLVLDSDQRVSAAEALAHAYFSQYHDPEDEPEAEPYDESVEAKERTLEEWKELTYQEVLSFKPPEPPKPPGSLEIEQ

ABL1 (human) = ABL1 (human) (UniProt P00519)
RPS6KA1 KD1 (human) = RPS6KA1 KD1 (human) (UniProt Q15418)
LIMK1 (human) = LIMK1 (human) (UniProt P53667)
PTK6 (human) = PTK6 (human) (UniProt Q13882)
BMX (human) = BMX (human) (UniProt P51813)
MAP3K3 (human) = MAP3K3 (human) (UniProt Q99759)
TGFBR1 (human) = TGFBR1 (human) (UniProt P36897)
ACVRL1 (human) = ACVRL1 (human) (UniProt P37023)
RIPK1 (human) = RIPK1 (human) (UniProt Q13546)
Chain of RIPK1 (human) (Q13546 whole entry, looked up): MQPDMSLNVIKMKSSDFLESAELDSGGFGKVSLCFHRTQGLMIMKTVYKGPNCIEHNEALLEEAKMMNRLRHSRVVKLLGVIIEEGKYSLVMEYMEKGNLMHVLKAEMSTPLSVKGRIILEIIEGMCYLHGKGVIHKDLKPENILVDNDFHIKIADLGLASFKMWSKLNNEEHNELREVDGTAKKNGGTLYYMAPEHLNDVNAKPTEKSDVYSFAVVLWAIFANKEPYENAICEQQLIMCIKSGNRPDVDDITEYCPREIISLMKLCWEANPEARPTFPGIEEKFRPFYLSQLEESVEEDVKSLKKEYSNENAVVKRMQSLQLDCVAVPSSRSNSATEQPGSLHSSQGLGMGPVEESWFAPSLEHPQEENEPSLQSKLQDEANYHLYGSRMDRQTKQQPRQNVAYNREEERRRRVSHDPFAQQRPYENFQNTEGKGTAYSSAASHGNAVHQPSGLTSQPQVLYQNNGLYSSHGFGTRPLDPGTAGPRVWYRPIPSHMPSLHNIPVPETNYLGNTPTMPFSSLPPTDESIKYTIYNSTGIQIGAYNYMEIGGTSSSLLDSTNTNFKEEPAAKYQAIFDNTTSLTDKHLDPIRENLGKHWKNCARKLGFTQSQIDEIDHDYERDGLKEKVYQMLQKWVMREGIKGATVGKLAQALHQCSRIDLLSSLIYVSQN

PIK3CB (human) = PIK3CB (human) (UniProt P42338)
Chain of PIK3CB (human) (P42338 whole entry, looked up): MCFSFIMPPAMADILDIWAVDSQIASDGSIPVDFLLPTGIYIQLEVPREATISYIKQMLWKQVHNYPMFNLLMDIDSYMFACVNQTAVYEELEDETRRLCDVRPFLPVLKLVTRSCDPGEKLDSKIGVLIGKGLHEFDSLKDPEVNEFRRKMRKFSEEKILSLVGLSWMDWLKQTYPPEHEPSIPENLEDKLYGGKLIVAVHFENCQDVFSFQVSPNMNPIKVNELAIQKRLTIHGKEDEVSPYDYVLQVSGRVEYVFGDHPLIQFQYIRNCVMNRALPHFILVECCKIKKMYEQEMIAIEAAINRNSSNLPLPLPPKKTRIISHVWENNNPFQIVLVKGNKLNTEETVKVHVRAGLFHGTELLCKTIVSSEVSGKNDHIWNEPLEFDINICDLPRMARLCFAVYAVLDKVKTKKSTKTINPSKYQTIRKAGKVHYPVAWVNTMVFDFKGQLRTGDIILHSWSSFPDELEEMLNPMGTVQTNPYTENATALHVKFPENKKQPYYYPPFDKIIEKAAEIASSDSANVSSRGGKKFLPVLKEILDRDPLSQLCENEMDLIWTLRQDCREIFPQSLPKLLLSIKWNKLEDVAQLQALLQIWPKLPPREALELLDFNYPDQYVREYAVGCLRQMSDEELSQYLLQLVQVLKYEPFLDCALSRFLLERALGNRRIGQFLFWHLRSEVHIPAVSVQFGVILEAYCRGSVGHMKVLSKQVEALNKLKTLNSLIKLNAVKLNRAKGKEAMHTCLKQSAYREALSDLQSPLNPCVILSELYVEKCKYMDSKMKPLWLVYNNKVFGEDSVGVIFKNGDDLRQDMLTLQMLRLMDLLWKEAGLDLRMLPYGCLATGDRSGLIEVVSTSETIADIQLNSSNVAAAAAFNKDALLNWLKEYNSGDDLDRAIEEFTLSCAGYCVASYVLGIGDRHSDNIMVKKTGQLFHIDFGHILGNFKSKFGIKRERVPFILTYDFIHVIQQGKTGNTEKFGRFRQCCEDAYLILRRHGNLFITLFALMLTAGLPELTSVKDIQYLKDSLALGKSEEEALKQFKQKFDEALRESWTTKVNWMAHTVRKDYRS

RPS6KA4 KD1 (human) = RPS6KA4 KD1 (human) (UniProt O75676)
NUAK1 (human) = NUAK1 (human) (UniProt O60285)
MAP3K4 (human) = MAP3K4 (human) (UniProt Q9Y6R4)
NTRK3 (human) = NTRK3 (human) (UniProt Q16288)
CSK (human) = CSK (human) (UniProt P41240)
PRKACB (human) = PRKACB (human) (UniProt P22694)
PHKG1 (human) = PHKG1 (human) (UniProt Q16816)
Chain of PHKG1 (human) (Q16816 whole entry, looked up): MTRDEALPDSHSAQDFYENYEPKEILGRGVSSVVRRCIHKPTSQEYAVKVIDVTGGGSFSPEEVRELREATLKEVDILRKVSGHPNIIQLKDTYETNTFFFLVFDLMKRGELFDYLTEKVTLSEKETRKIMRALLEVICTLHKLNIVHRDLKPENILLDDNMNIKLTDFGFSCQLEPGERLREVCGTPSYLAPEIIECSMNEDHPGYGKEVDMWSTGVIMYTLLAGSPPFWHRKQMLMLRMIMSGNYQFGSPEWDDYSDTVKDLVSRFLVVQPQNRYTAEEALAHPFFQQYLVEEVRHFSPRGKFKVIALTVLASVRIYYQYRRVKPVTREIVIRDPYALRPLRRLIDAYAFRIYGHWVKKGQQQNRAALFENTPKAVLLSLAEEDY

LCK (human) = LCK (human) (UniProt P06239)
CHEK1 (human) = CHEK1 (human) (UniProt O14757)
CSNK1G2 (human) = CSNK1G2 (human) (UniProt P78368)
Chain of CSNK1G2 (human) (P78368 whole entry, looked up): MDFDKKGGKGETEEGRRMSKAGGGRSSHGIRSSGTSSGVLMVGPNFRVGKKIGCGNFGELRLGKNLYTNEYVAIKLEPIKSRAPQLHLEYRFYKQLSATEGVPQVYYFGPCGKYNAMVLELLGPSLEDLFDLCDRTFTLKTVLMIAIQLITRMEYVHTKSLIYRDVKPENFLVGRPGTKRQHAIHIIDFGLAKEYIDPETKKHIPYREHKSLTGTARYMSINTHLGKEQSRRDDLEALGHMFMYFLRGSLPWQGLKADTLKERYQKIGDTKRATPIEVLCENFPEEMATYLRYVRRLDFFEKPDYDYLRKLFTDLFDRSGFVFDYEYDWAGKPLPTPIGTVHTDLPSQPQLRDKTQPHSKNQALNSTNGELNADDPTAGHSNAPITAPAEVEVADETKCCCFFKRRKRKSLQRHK

CDK2 (human) = CDK2 (human) (UniProt P24941)
PLK1 (human) = PLK1 (human) (UniProt P53350)
Chain of PLK1 (human) (P53350 whole entry, looked up): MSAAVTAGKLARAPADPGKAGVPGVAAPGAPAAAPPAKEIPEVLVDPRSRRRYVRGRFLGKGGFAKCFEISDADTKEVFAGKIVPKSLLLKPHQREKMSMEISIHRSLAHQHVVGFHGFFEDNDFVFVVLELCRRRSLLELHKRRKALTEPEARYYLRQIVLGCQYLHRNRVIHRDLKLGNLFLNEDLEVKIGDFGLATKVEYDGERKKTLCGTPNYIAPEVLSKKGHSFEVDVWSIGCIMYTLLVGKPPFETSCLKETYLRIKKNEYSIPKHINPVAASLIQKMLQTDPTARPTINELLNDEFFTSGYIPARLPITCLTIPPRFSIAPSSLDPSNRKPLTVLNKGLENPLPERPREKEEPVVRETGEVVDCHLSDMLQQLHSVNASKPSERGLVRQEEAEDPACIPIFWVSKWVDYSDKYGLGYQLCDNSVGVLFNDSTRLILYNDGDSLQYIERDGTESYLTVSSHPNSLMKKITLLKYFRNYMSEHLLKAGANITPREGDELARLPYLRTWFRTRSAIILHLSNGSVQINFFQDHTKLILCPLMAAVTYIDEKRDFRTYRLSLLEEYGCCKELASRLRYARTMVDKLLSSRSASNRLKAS

PRKCE (human) = PRKCE (human) (UniProt Q02156)
FES (human) = FES (human) (UniProt P07332)
CDK14 (human) = CDK14 (human) (UniProt O94921)
CDK8 (human) = CDK8 (human) (UniProt P49336)
SIK2 (human) = SIK2 (human) (UniProt Q9H0K1)
MERTK (human) = MERTK (human) (UniProt Q12866)

COc1cc(N2CCN(C)CC2)ccc1Nc1ncc2c(n1)Nc1ccccc1NC2=O
kinase still bound, per cent of control (ERBB4 (human)): 62% | kinase still bound, per cent of control (FLT1 (human)): 45% | kinase still bound, per cent of control (FYN (human)): 98% | kinase still bound, per cent of control (SRMS (human)): 0% | kinase still bound, per cent of control (PRKCQ (human)): 59% | kinase still bound, per cent of control (MAP2K6 (human)): 97% | kinase still bound, per cent of control (SRPK1 (human)): 100% | kinase still bound, per cent of control (STK32C (human)): 100% | kinase still bound, per cent of control (TESK1 (human)): 100% | kinase still bound, per cent of control (LTK (human)): 72% | kinase still bound, per cent of control (CAMK1G (human)): 100% | kinase still bound, per cent of control (CDK15 (human)): 58% | kinase still bound, per cent of control (STK4 (human)): 100% | kinase still bound, per cent of control (MAPK11 (human)): 100% | kinase still bound, per cent of control (ABL1 (human)): 24% | kinase still bound, per cent of control (RPS6KA1 KD1 (human)): 96% | kinase still bound, per cent of control (LIMK1 (human)): 100% | kinase still bound, per cent of control (PTK6 (human)): 82% | kinase still bound, per cent of control (BMX (human)): 99% | kinase still bound, per cent of control (MAP3K3 (human)): 86% | kinase still bound, per cent of control (TGFBR1 (human)): 79% | kinase still bound, per cent of control (ACVRL1 (human)): 81% | kinase still bound, per cent of control (RIPK1 (human)): 100% | kinase still bound, per cent of control (PIK3CB (human)): 88% | kinase still bound, per cent of control (RPS6KA4 KD1 (human)): 100% | kinase still bound, per cent of control (NUAK1 (human)): 63% | kinase still bound, per cent of control (MAP3K4 (human)): 95% | kinase still bound, per cent of control (NTRK3 (human)): 2.1% | kinase still bound, per cent of control (CSK (human)): 100% | kinase still bound, per cent of control (PRKACB (human)): 100% | kinase still bound, per cent of control (PHKG1 (human)): 46% | kinase still bound, per cent of control (LCK (human)): 28% | kinase still bound, per cent of control (CHEK1 (human)): 75% | kinase still bound, per cent of control (CSNK1G2 (human)): 92% | kinase still bound, per cent of control (CDK2 (human)): 100% | kinase still bound, per cent of control (PLK1 (human)): 99% | kinase still bound, per cent of control (PRKCE (human)): 93% | kinase still bound, per cent of control (FES (human)): 100% | kinase still bound, per cent of control (CDK14 (human)): 100% | kinase still bound, per cent of control (CDK8 (human)): 55% | kinase still bound, per cent of control (SIK2 (human)): 82% | kinase still bound, per cent of control (MERTK (human)): 80%
